# Test system: rabbit skeletal myofibrils (fast skeletal myofibrils)
# Test: Activation of fast skeletal myofibrils (PUMA assay, PK/LDH-coupled ATPase at pCa25)
# Format: biochemical
# Conditions: AC1.4 determined according to the procedure of Example 39; reported as class symbols
# How it was run: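 Detergent-washed rabbit psoas myofibrils (~90% fast fibres, calcium-regulated) assayed at calcium giving 25% of maximal ATPase rate (pCa25). ADP turnover coupled via pyruvate kinase/lactate dehydrogenase to NADH oxidation, read at 340 nm. Buffer 12 mM PIPES, 2 mM MgCl2, 1 mM DTT, pH 6.8; AC1.4 values derived.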
row,Structure (SMILES),Mean AC1.4
1,CCCC(CNc1ccc(-c2cccc(C(N)=O)c2)nn1)c1ccccc1Cl (stereo not drawn),B (B=1-10 uM)
2,CC(C)(CNc1ccc(-c2ccc3nc[nH]c(=O)c3c2)nn1)c1ccc(F)cc1,B (B=1-10 uM)
3,CC(C)(CNc1ccc(-c2ccc3[nH]ncc3c2)nn1)c1ncccc1F [(6-(1H-indazol-5-yl)pyridazin-3-yl)[2-(3-fluoro(2-pyridyl))-2-methylpropyl]amine],B (B=1-10 uM)
4,CC(C)(CNc1ccc(C(=O)N2CCOCC2)nn1)c1ccc(F)cc1 [6-{[2-(4-fluorophenyl)-2-methylpropyl]amino}pyridazin-3-yl morpholin-4-yl ketone],D (D=>20 uM)
5,CC(C)(CNc1ccc(-c2cccc(C(N)=O)c2)nn1)c1ccc(F)cn1 [3-(6-{[2-(5-fluoro(2-pyridyl))-2-methylpropyl]amino}pyridazin-3-yl)benzamide],C (C=10-20 uM)
6,CC(=O)Nc1ccc(-c2ccc(NCC(C)(C)c3ccc(F)cc3)nn2)cn1 [N-[5-(6-{[2-(4-fluorophenyl)-2-methylpropyl]amino}pyridazin-3-yl)-2-pyridyl]acetamide],B (B=1-10 uM)
7,"CC(C)(C)CCNc1ccc(-c2cccc(C(N)=O)c2)nn1 [3-{6-[(3,3-dimethylbutyl)amino]pyridazin-3-yl}benzamide]",D (D=>20 uM)
8,CC(CNc1ccc(-c2cccc(C(N)=O)c2)nn1)N1CCCC1=O (stereo not drawn),D (D=>20 uM)
9,COc1ccnc(C2(CNc3ccc(-c4ccc5[nH]ncc5c4)nn3)CCC2)c1 [(6-(1H-indazol-5-yl)pyridazin-3-yl){[(4-methoxy(2-pyridyl))cyclobutyl]methyl}amine],A (A=<1 uM)
10,Fc1cccnc1C1(CNc2ccc(-c3ccc4n[nH]nc4c3)nn2)CCC1 [(6-benzotriazol-6-ylpyridazin-3-yl){[(3-fluoro(2-pyridyl))cyclobutyl]methyl}amine],A (A=<1 uM)
11,CC(C)(CNc1ccc(-c2cncnc2)nn1)c1ccccc1Cl [[2-(2-chlorophenyl)-2-methylpropyl](6-pyrimidin-5-ylpyridazin-3-yl)amine],B (B=1-10 uM)

# The next lines start with the values.
row,Mean AC1.4,Structure (SMILES)
1,B (B=1-10 uM),"CN(C)C(=O)n1nc(N)c2cc(-c3ccc(NCC(C)(C)c4ccc(F)cc4)nn3)ccc21 [[3-amino-5-(6-{[2-(4-fluorophenyl)-2-methylpropyl]amino}pyridazin-3-yl)(1H-indazolyl)]-N,N-dimethylcarboxamide]"
2,A (A=<1 uM),Nc1n[nH]c2ccc(-c3ccc(NCC4(c5ccc(F)cc5)CC4)nn3)cc12 [[6-(3-amino(1H-indazol-5-yl))pyridazin-3-yl]{[(4-fluorophenyl)cyclopropyl]meth-yl}amine]
3,C (C=10-20 uM),COc1ncc(-c2ccc(NCC(C)(C)c3ccc(F)cc3)nn2)cn1 [[2-(4-fluorophenyl)-2-methylpropyl][6-(2-methoxypyrimidin-5-yl)pyridazin-3-yl]amine]
4,C (C=10-20 uM),COCc1ccccc1C(C)(C)CNc1ccc(-c2ccc3[nH]nc(N)c3c2)nn1 [[6-(3-amino(1H-indazol-5-yl))pyridazin-3-yl]{2-[2-(methoxymethyl)phenyl]-2-methylpropyl}amine]

# Same assay, conditions: median AC1.4 class, procedure of Example 39
row,Structure (SMILES),Mean AC1.4
1,Fc1ccc(C2(Nc3ccc(-c4ccc5[nH]ncc5c4)nn3)CCC2)cc1 [(6-(1H-indazol-5-yl)pyridazin-3-yl)[(4-fluorophenyl)cyclobutyl]amine],A (A=<1 uM)
2,NC(=O)NC1CC(c2ccc(NCC3(c4ncccc4F)CCC3)nn2)C1 (stereo not drawn),C (C=10-20 uM)
3,O=C(O)c1ccc(-c2ccc(NCC3(c4ncccc4F)CCC3)nn2)s1 [5-[6-({[(3-fluoro-2-pyridyl)cyclobutyl]methyl}ami-no)pyridazin-3-yl]thiophene-2-carboxylic acid],B (B=1-10 uM)
4,"NC(=O)c1nc(-c2ccc(NCC3(c4ncccc4F)CCC3)nn2)cs1 [4-[6-({[(3-fluoro-2-pyridyl)cyclobutyl]methyl}ami-no)pyridazin-3-yl]-1,3-thiazole-2-carboxamide]",B (B=1-10 uM)
5,COc1ccc(-c2ccc(NCC3(c4ncccc4F)CCC3)nn2)cc1C(N)=O,B (B=1-10 uM)
6,"NC(=O)c1ncc(-c2ccc(NCC3(c4ncccc4F)CCC3)nn2)s1 [5-[6-({[(3-fluoro-2-pyridyl)cyclobutyl]methyl}ami-no)pyridazin-3-yl]-1,3-thiazole-2-carboxamide]",B (B=1-10 uM)
7,"O=c1[nH]nc(-c2cnc(-c3ccc(NCC4(c5ncccc5F)CCC4)nn3)s2)[nH]1 [3-{2-[6-({[(3-fluoro-2-pyridyl)cyclobutyl]methyl}ami-no)pyridazin-3-yl]-1,3-thiazol-5-yl}-1,2,4-triazolin-5-one]",A (A=<1 uM)
8,"O=C(NCC(F)(F)CO)c1cnc(-c2ccc(NCC3(c4ncccc4F)CCC3)nn2)s1 [N-(2,2-difluoro-3-hydroxypropyl){2-[6-({[(3-fluoro(2-pyridyl))cyclobutyl]methyl}ami-no)pyridazin-3-yl](1,3-thiazol-5-yl)}carboxamide]",A (A=<1 uM)
9,NC(=O)c1cccc(-c2ccc(NC3(c4ncccc4OC(F)F)CCC3)nn2)c1,D (D=>20 uM)
10,Cn1cc(C(N)=O)nc1-c1ccc(NCC2(c3ncccc3F)CCC2)nn1 [2-[6-({[(3-fluoro(2-pyridyl))cyclobutyl]methyl}ami-no)pyridazin-3-yl]-1-methylimidazole-4-carboxamide],D (D=>20 uM)
11,"NC(=O)Cn1nnc(-c2ccc(NCC3(c4ncccc4F)CCC3)nn2)n1 [2-{5-[6-({[(3-fluoro-2-pyridyl)cyclobutyl]methyl}ami-no)pyridazin-3-yl]-1,2,3,4-tetraazol-2-yl}acetamide]",D (D=>20 uM)
12,NC(=O)c1cc(-c2ccc(NCC3(c4ncccc4F)CCC3)nn2)no1,A (A=<1 uM)
13,CNC(=O)c1cc(-c2ccc(NC3(c4ccc(F)cc4)CCC3)nn2)ccn1,B (B=1-10 uM)
14,O=C1Cc2ccc(-c3ccc(NCC4(c5ncccc5F)CCC4)nn3)cc2N1,B (B=1-10 uM)
15,NC(=O)Nc1n[nH]c2ccc(-c3ccc(NCC4(c5ncccc5F)CCC4)nn3)cc12,A (A=<1 uM)
16,CS(=O)(=O)Nc1ccc(-c2ccc(NC3(c4ccc(F)cc4)CCC3)nn2)cc1,B (B=1-10 uM)

# More lines, now with the values ahead:
row,Mean AC1.4,Structure (SMILES)
1,D (D=>20 uM),Fc1cccnc1C1(CNc2ccc(-c3ccnnc3)nn2)CCC1 [{[(3-fluoro(2-pyridyl))cyclobutyl]methyl}(6-pyridazin-4-ylpyridazin-3-yl)amine]
2,D (D=>20 uM),COC(=O)c1cn(C)c(-c2ccc(NCC3(c4ncccc4F)CCC3)nn2)n1 [methyl 2-[6-({[(3-fluoro(2-pyridyl))cyclobutyl]methyl}ami-no)pyridazin-3-yl]-1-methylimidazole-4-carboxylate]
3,D (D=>20 uM),"COc1ccc2nc(-c3ccc(NCC4(c5ncccc5F)CCC4)nn3)sc2n1 [{[(3-fluoro(2-pyridyl))cyclobutyl]methyl}[6-(5-methoxy(1,3-thiazolino[5,4-b]pyridin-2-yl))pyridazin-3-yl]amine]"
4,B (B=1-10 uM),"NC(c1cnc(-c2ccc(NCC3(c4ncccc4F)CCC3)nn2)s1)C(F)(F)F (stereo not drawn) [{6-[5-(1-amino-2,2,2-trifluoroethyl)(1,3-thiazol-2-yl)]pyridazin-3-yl}{[(3-fluoro(2-pyridyl))cyclobutyl]methyl}amine]"

# Same assay, conditions: median AC1.4 reported as class; procedure of Example 39
row,Structure (SMILES),Mean AC1.4
1,O=C1NCc2cc(-c3ccc(NC[C@]4(c5ncccc5F)C[C@H](F)C4)nn3)ccc21 [5-[6-({[3-fluoro-1-(3-fluoro(2-pyridyl))cyclobutyl]methyl}ami-no)pyridazin-3-yl]isoindolin-1-one],C (C=10-20 uM)
2,O=C1CC[C@@H](NC(=O)c2ccc(NCC3(c4ncccc4F)CCC3)nn2)CN1 [N-((3R)-6-oxo(3-piperidyl))[6-({[(3-fluoro(2-pyridyl))cyclobutyl]methyl}ami-no)pyridazin-3-yl]carboxamide],D (D=>20 uM)

# Further lines, results first:
row,Mean AC1.4,Structure (SMILES)
1,D (D=>20 uM),"Fc1cccnc1C1(CNc2ccc(-c3nc4c(s3)CNCC4)nn2)CCC1 [{[(3-fluoro(2-pyridyl))cyclobutyl]methyl}(6-(4,5,6,7-tetrahydro-1,3-thiazolo[5,4-c]pyridin-2-yl)pyridazin-3-yl)amine]"
2,B (B=1-10 uM),O=C(NC1CC(O)C1)c1cccc(-c2ccc(NC[C@]3(c4ncccc4F)C[C@H](F)C3)nn2)c1 (stereo partly drawn) [{3-[6-({[3-fluoro-1-(3-fluoro(2-pyridyl))cyclobutyl]methyl}ami-no)pyridazin-3-yl]phenyl}-N-(3-hydroxycyclobutyl)carboxamide]
3,D (D=>20 uM),O=C(NCc1ccncc1)c1ccc(NCC2(c3ncccc3F)CCC2)nn1 [[6-({[(3-fluoro(2-pyridyl))cyclobutyl]methyl}ami-no)pyridazin-3-yl]-N-(4-pyridylmethyl)carboxamide]
4,B (B=1-10 uM),"O=C(NCC(F)(F)F)c1ccc(F)c(-c2ccc(NC[C@]3(c4ncccc4F)C[C@H](F)C3)nn2)c1 [{4-fluoro-3-[6-({[3-fluoro-1-(3-fluoro(2-pyridyl))cyclobutyl]methyl}ami-no)pyridazin-3-yl]phenyl}-N-(2,2,2-trifluoroethyl)carboxamide]"
5,B (B=1-10 uM),CNC(=O)c1ccc(O)c(-c2ccc(NC[C@]3(c4ncccc4F)C[C@H](F)C3)nn2)c1 [{3-[6-({[3-fluoro-1-(3-fluoro(2-pyridyl))cyclobutyl]methyl}ami-no)pyridazin-3-yl]-4-hydroxyphenyl}-N-methylcarboxamide]

# From patent US10076519B2 (CYTOKINETICS, INC., priority 2010, dated 2018)
